# From patent publication US12691107B2, “Methods for the treatment and prevention of lung infections caused by gram-positive bacteria, fungus, or virus by administration of tafenoquine” (priority 2020, dated 2026)
# Like-named read-outs stand apart in the source and are kept apart here.
# What was measured:
# Assay type in all cases: cell-based
# Blastomyces dermatitidis = assay: Antifungal MIC (RPMI-1640 microdilution)
# Candida parapsilosis = assay: Antifungal MIC (RPMI-1640 microdilution); conditions: for MIC50: Lodderomyces parapsilosis
# Coccidioides sp. = assay: microbe, parasite or virus in culture
# Emergomyces sp. = assay: Antifungal MIC (RPMI-1640 microdilution)
# P. variotii = assay: Antifungal MIC (RPMI-1640 microdilution); conditions: Paecilomyces variotii, read-out: MIC 50% inhibition; isolate MYA-3630
# Histoplasma capsulatum = assay: microbe, parasite or virus in culture
# Candida guilliermondii = assay: Antifungal MIC (RPMI-1640 microdilution); conditions: Meyerozyma guilliermondii
# Candida glabrata = assay: Antifungal MIC (RPMI-1640 microdilution); conditions: Nakaseomyces glabratus
# Cryptococcus neoformans = assay: Antifungal MIC (RPMI-1640 microdilution); conditions: Cryptococcus neoformans
# Scedosporium sp. = assay: Antifungal MIC (RPMI-1640 microdilution); conditions: Scedosporium
# Candida albicans = assay: Antifungal MIC (RPMI-1640 microdilution)
# Candida auris = assay: Antifungal MIC (RPMI-1640 microdilution); conditions: Candidozyma auris
# C. krusei = assay: Antifungal MIC (RPMI-1640 microdilution); conditions: Pichia kudriavzevii, ATCC6258, read-out: MIC 50% inhibition; isolate ATCC 6258
# [1] = system: M. tuberculosis [ATCC #27294]; assay: MIC against M. tuberculosis in 7H9 media; conditions: Mycobacterium tuberculosis, read-out: MIC
# P. aeruginosa = assay: Antibacterial MIC (broth microdilution); conditions: Pseudomonas aeruginosa
# E. coli = assay: Antibacterial MIC (broth microdilution)
# Protocol: Growth Medium—Cation adjusted Mueller-Hinton broth was used as the test medium. Broth for panel preparation was prepared from commercial dehydrated medium (Difco formulation, BD Diagnostics, catalog number 275730).
# Dilution of Investigational Agents—Polystyrene test tubes were used to prepare the drug dilutions and sterile U-shaped 96-well polystyrene microtiter trays were used for performing the MIC assays. Stock solutions of the investigational agents were prepared at concentrations 100-times the highest concentration to be tested (6400-1.25 μg/ml) using dimethyl sulfoxide. Aliquots of the stock solutions were dispensed into polypropylene vials and stored at −20° C. Further dilutions (1:50) were made in the culture medium (cation-adjusted Mueller-Hinton medium).
# After the dilutions of the working 2-fold investigational antibacterial solutions were prepared, 50 μL of each concentration was transferred into rows of the first 10 wells of each 12-well column of the U-shaped disposable 96-well microtiter trays using a multichannel pipettor. The 11th well in each row served as the sterility control, and the 12th well contained only culture medium to serve as the growth control for each isolate. In like manner, the control drug for the organism being tested was prepared in a separate 96 well panel exactly as described above. A 50 μL volume of the standardized inoculum suspension of each test isolate was prepared in culture medium to directly inoculate each test well of the drug containing microtiter tray.
# Inoculum Preparation—Colonies of each strain generated on sheep blood agar plates with overnight growth at 35° C. in ambient air were used to directly prepare a suspension equivalent in density to the 0.5 McFarland opacity standard. The exact turbidity of each suspension was determined using a desktop portable photometer. For panels containing 2× drug concentrations, a 1:100 dilution of the McFarland organism suspension was prepared in cation-adjusted Mueller-Hinton broth and 50 μL aliquots of each test (and control) strain was added to each well of the designated rows of the microtiter trays using a multichannel pipettor. The target inoculum concentration was 5×10^5 CFU/ml in each well.
# Trays were removed and each well were inspected for evidence of growth (turbidity). The MIC was defined as the lowest concentration of the investigational agent and the control drug that prevents visibly discernible growth in the test wells.
# A. baumannii = assay: Antibacterial MIC (broth microdilution); conditions: Acinetobacter baumannii
# K. pneumoniae = assay: Antibacterial MIC (broth microdilution); conditions: Klebsiella pneumoniae
smiles,measurement,setting,value
OC(Cn1cncn1)(Cn1cncn1)c1ccc(F)cc1F [Fluconazole],MIC50,"Blastomyces dermatitidis; read-out: MIC 50% inhibition, isolate Blasto1",≤ 0.03 µg/mL
same,MIC50,"Blastomyces dermatitidis; read-out: MIC 50% inhibition, isolate Blasto2",≤ 0.03 µg/mL
same,MIC50,"Blastomyces dermatitidis; read-out: MIC 50% inhibition, isolate Blasto3",≤ 0.03 µg/mL
same,MIC50,"Candida parapsilosis; ATCC22019, read-out: MIC 50% inhibition, isolate ATCC 22019",1 µg/mL
same,MIC50,"Candida parapsilosis; read-out: MIC 50% inhibition, isolate CP1",0.5 µg/mL
same,MIC 50% inhibition,Candida parapsilosis; isolate CP2,0.5 µg/mL
same,MIC 50% inhibition,Candida parapsilosis; isolate CP3,0.5 µg/mL
same,MIC50,"Coccidioides sp.; read-out: MIC 50% inhibition, isolate Cocci1",16 µg/mL
same,MIC50,"Coccidioides sp.; read-out: MIC 50% inhibition, isolate Cocci2",32 µg/mL
same,MIC50,"Coccidioides sp.; read-out: MIC 50% inhibition, isolate D117-143",4 µg/mL
same,MIC50,"Emergomyces sp.; read-out: MIC 50% inhibition, isolate Emerg2",≤ 0.03 µg/mL
same,MIC50,"Emergomyces sp.; read-out: MIC 50% inhibition, isolate Emerg3",≤ 0.03 µg/mL
same,MIC50,P. variotii,8 µg/mL
same,MIC50,"Histoplasma capsulatum; read-out: MIC 50% inhibition, isolate HC1",0.125 µg/mL
same,MIC50,"Histoplasma capsulatum; read-out: MIC 50% inhibition, isolate HC2",≤ 0.03 µg/mL
same,MIC50,"Histoplasma capsulatum; read-out: MIC 50% inhibition, isolate HC3",≤ 0.03 µg/mL
same,MIC50,"Candida guilliermondii; read-out: MIC 50% inhibition, isolate Cgui1",1 µg/mL
same,MIC50,"Candida guilliermondii; read-out: MIC 50% inhibition, isolate Cgui2",2 µg/mL
same,MIC50,"Candida guilliermondii; read-out: MIC 50% inhibition, isolate Cgui3",2 µg/mL
same,MIC50,"Candida glabrata; read-out: MIC 50% inhibition, isolate 05-62",> 64 µg/mL
same,MIC50,"Candida glabrata; read-out: MIC 50% inhibition, isolate 05-761",8 µg/mL
same,MIC50,"Candida glabrata; read-out: MIC 50% inhibition, isolate CG3",32 µg/mL
same,MIC50,"Cryptococcus neoformans; read-out: MIC 50% inhibition, isolate CN3",64 µg/mL
same,MIC50,"Cryptococcus neoformans; read-out: MIC 50% inhibition, isolate H99",16 µg/mL
same,MIC50,"Cryptococcus neoformans; read-out: MIC 50% inhibition, isolate USC1597",4 µg/mL
same,MIC50,"Scedosporium sp.; read-out: MIC 50% inhibition, isolate Scedo1",0.125 µg/mL
same,MIC50,"Scedosporium sp.; read-out: MIC 50% inhibition, isolate 00-180",0.125 µg/mL
same,MIC50,"Scedosporium sp.; read-out: MIC 50% inhibition, isolate LPI",4 µg/mL
same,MIC50,"Candida albicans; ATCC90028, read-out: MIC 50% inhibition, isolate ATCC 90028",0.25 µg/mL
same,MIC50,"Candida albicans; read-out: MIC 50% inhibition, isolate CA3",> 64 µg/mL
same,MIC50,"Candida albicans; read-out: MIC 50% inhibition, isolate SC5314",0.5 µg/mL
same,MIC50,"Candida auris; read-out: MIC 50% inhibition, isolate DI17-46",> 64 µg/mL
same,MIC50,"Candida auris; read-out: MIC 50% inhibition, isolate DI17-47",> 64 µg/mL
same,MIC50,"Candida auris; read-out: MIC 50% inhibition, isolate DI17-48",2 µg/mL
same,MIC50,C. krusei,32 µg/mL
NNC(=O)c1ccncc1 [Isoniazid],MIC,"[1]; ATCC27294, 168 h, 7H9 with BSA, DPPC and cholesterol, 1 week",0.2 µM
same,MIC,"[1]; ATCC27294, 168 h, 7H9 with casitone and DPPC, 1 week",0.07 µM
same,MIC,"[1]; ATCC27294, 168 h, 7H9 with glucose and BSA, 1 week",0.2 µM
same,MIC,"[1]; ATCC27294, 168 h, 7H9 with glucose and casitone, 1 week",0.1 µM
same,MIC,"[1]; ATCC27294, 336 h, 7H9 with BSA, DPPC and cholesterol, 2 weeks",0.3 µM
same,MIC,"[1]; ATCC27294, 336 h, 7H9 with casitone and DPPC, 2 weeks",0.1 µM
same,MIC,"[1]; ATCC27294, 336 h, 7H9 with glucose and BSA, 2 weeks",0.3 µM
same,MIC,"[1]; ATCC27294, 336 h, 7H9 with glucose and casitone, 2 weeks",0.15 µM
C[C@@H](O)[C@H]1C(=O)N2C(C(=O)O)=C(S[C@@H]3CN[C@H](C(=O)N(C)C)C3)[C@H](C)[C@H]12 [Meropenem],MIC,"P. aeruginosa; ATCC27853, isolate ATCC 27853",0.25 µg/mL
same,MIC,P. aeruginosa; isolate AR-230,> 64 µg/mL
same,MIC,P. aeruginosa; isolate J4242,8 µg/mL
same,MIC,"E. coli; Escherichia coli, ATCC25922, isolate ATCC 25922, read-out: MIC",≤ 0.125 µg/mL
same,MIC,"E. coli; Escherichia coli, isolate J4243 (MO72), read-out: MIC",≤ 0.125 µg/mL
same,MIC,E. coli; isolate J4244 (JJ1886),≤0.125 µg/mL
same,MIC,"A. baumannii; ATCC17978, isolate ATCC 17978",≤ 0.125 µg/mL
same,MIC,A. baumannii; isolate AR-88,> 64 µg/mL
same,MIC,A. baumannii; isolate AR-273,64 µg/mL
same,MIC,"K. pneumoniae; ATCC70063, isolate ATCC 70063",≤ 0.125 µg/mL
same,MIC,K. pneumoniae; isolate AR-97,64 µg/mL
same,MIC,K. pneumoniae; isolate AR-113,> 64 µg/mL
